Values of other authors, collected in paper PMC3263412 (International Journal of Nanomedicine, 2012).

For CCCCCCCCCCCCCCCC[N+](C)(C)C [CTAB, Cetyltrimethyl ammonium bromide], the cytotoxicity is given as “marked cytotoxicity”.
